Where no end group is shown, it is not given here.
Tested on: T2 cell line for lysis by clone 5H17
Assay: 51Cr release assay: peptide sensitization of T2 for lysis by HA-2 specific CTL clone 5H17
Assay type: cell-based, human
Conditions: T2 cells

With “YXGEVXVSV (X: residue not identified in the source) [synthetic peptide mixture, X stands for L or I]” the “HA-2 specific sensitizing CTL activity (lysis of T2)” value was “resulted in lysis of T2”.

Source: patent US5770201A, “HA-2 antigenic peptide” (Rijsuniversiteit Te Leiden, priority 1994, dated 1998)
